For nine compounds, GI50 and TGI results are on record in PubChem BioAssay (NCI).

Test systems include MDA-MB-435; NCI-H226 lung; OVCAR-8 ovarian; A498 renal; EKVX NSCLC; MALME-3M melanoma; UACC-62 melanoma; SW-620 colon; CAKI-1 renal; DU-145 prostate.
Common to all, as to experiment: NCI tumour cell line growth inhibition, 48 h

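Growth conditions: 96-well plates. Treatment: test compound, 48 hours, 5 concentrations. Analysis: linear interpolation between bracketing concentrations; unreached endpoints set to highest concentration. Abbreviation: GI50, concentration required for 50% inhibition of growth. At the TGI there is no net growth.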

Consider `Cc1ncc(C(=O)Nc2ccc(CN3CCN(C)CC3)c(C(F)(F)F)c2)cc1C#Cc1c(N)ncc2ccccc12`, for which the GI50 with MDA-MB-435 was 0.163 µM; with NCI-H226 lung it was 0.393 µM; in the experiment on OVCAR-8 ovarian, 0.566 µM; in the experiment with A498 renal it was 0.485 µM; with EKVX NSCLC, 0.458 µM; with MALME-3M melanoma, 0.102 µM. The GI50 in the experiment with UACC-62 melanoma is 0.246 µM; in the experiment with SW-620 colon, 0.227 µM; in the experiment on CAKI-1 renal, 0.648 µM; in the experiment on DU-145 prostate, 0.502 µM. Further, the TGI with MDA-MB-435 amounted to 0.624 µM; with NCI-H226 lung it was 1.04 µM; in the experiment with OVCAR-8 ovarian, 1.28 µM; in the experiment on A498 renal, 0.939 µM; with EKVX NSCLC, 0.906 µM; in the experiment on MALME-3M melanoma it was 0.475 µM. For the same compound, the TGI stood at 0.781 µM in the experiment on UACC-62 melanoma, 0.754 µM with SW-620 colon, 2.35 µM in the experiment on CAKI-1 renal and 0.997 µM in the experiment with DU-145 prostate.

`NS(=O)(=O)c1ccc(-n2ncc3c(Nc4ccccc4)ncnc32)cc1`: the GI50 with MDA-MB-435 is 46.2 µM; in the experiment on NCI-H226 lung, 46.4 µM; in the experiment with OVCAR-8 ovarian, 18.3 µM; in the experiment on A498 renal, 24.3 µM; in the experiment with EKVX NSCLC it was 41.4 µM; in the experiment on MALME-3M melanoma it was 33 µM. The GI50 in the experiment with UACC-62 melanoma was 42.8 µM; in the experiment with SW-620 colon, 30.3 µM; in the experiment on CAKI-1 renal, 23.7 µM; in the experiment on DU-145 prostate, 35.6 µM. In addition, the TGI in the experiment on MDA-MB-435 is over 100 µM; with NCI-H226 lung, over 100 µM; in the experiment with OVCAR-8 ovarian it was 65 µM; in the experiment on A498 renal, 92.7 µM; in the experiment with EKVX NSCLC it was over 100 µM; with MALME-3M melanoma, over 100 µM. Moreover, the TGI in the experiment with UACC-62 melanoma, in the experiment on SW-620 colon, with CAKI-1 renal and with DU-145 prostate was over 100 µM in each case.

As to `CCOC(=O)C(C(=O)OCC)C(=O)c1ccccc1C(=O)c1ccccc1`, the TGI in the experiment on MDA-MB-435 was over 100 µM; in the experiment on NCI-H226 lung it was over 100 µM; in the experiment with A498 renal it was over 100 µM; in the experiment on EKVX NSCLC it was 96.7 µM; in the experiment with MALME-3M melanoma it was over 100 µM; in the experiment on UACC-62 melanoma it was over 100 µM. The figures for the TGI in the experiment on SW-620 colon, in the experiment on CAKI-1 renal and in the experiment on DU-145 prostate were 50.5 µM, over 100 µM and over 100 µM, respectively.

For the compound `COc1c(Cl)ccc2c(-c3nc4cc(Cl)c(F)cc4s3)cc(=O)oc12`, the GI50 is 25 µM in the experiment with MDA-MB-435; 11.7 µM in the experiment with NCI-H226 lung; 11.2 µM in the experiment on OVCAR-8 ovarian; 17.6 µM in the experiment with A498 renal; 2.11 µM in the experiment with MALME-3M melanoma; 16.5 µM in the experiment on UACC-62 melanoma. For the same compound, the GI50 in the experiment on SW-620 colon is 10.3 µM; in the experiment on CAKI-1 renal it was 1.98 µM; with DU-145 prostate, 13.9 µM. Besides, the TGI in the experiment on MDA-MB-435 was over 66.1 µM; with NCI-H226 lung, over 69.3 µM; in the experiment with OVCAR-8 ovarian, over 100 µM; with A498 renal, 36 µM; with MALME-3M melanoma it was 4.73 µM; with UACC-62 melanoma, 53.7 µM. The figures for the TGI in the experiment on SW-620 colon and in the experiment with DU-145 prostate were over 100 µM and 39.9 µM, respectively.

In the case of `Fc1ccc2c(c1)C1=C(CO2)C(c2ccc(Cl)cc2)NC(=S)N1` (stereo not drawn), the GI50 is 21.6 µM with MDA-MB-435; 42.6 µM with OVCAR-8 ovarian; 17.4 µM with A498 renal; 37.4 µM in the experiment with EKVX NSCLC; 18.4 µM with UACC-62 melanoma; 27.3 µM in the experiment on SW-620 colon. Also, the values for the GI50 in the experiment with CAKI-1 renal and in the experiment on DU-145 prostate were 19.1 µM and 28 µM, respectively. Besides, the TGI was 51.1 µM in the experiment on MDA-MB-435; over 100 µM with OVCAR-8 ovarian; 73.7 µM in the experiment with A498 renal; over 100 µM in the experiment with EKVX NSCLC; 63.7 µM in the experiment with UACC-62 melanoma; 93.8 µM with SW-620 colon. The figures for the TGI in the experiment on CAKI-1 renal and with DU-145 prostate were 59.6 µM and over 100 µM, respectively.

For `COc1ccc(-c2ccc(-c3ccc(C(=N)N)cn3)o2)cc1Cl`, the GI50 is 1.74 µM in the experiment with MDA-MB-435; 2.89 µM in the experiment with NCI-H226 lung; 2.05 µM in the experiment on A498 renal; 2 µM with EKVX NSCLC; 1.81 µM with MALME-3M melanoma; 1.78 µM in the experiment with SW-620 colon. For the same compound, the GI50 in the experiment on CAKI-1 renal is 6.57 µM; with DU-145 prostate, 3.45 µM. Moreover, the TGI in the experiment on MDA-MB-435 worked out at 3.33 µM; in the experiment with NCI-H226 lung, 13.3 µM; with A498 renal, 5.57 µM; with EKVX NSCLC, 4.26 µM; in the experiment on MALME-3M melanoma, 3.48 µM; in the experiment on SW-620 colon, 3.57 µM. Moreover, the TGI turned out to be 19.8 µM with CAKI-1 renal and 11.3 µM with DU-145 prostate.

On to `CNC1=C(C(=O)OC)SC(c2ccccc2)(c2ccccc2)SC1`, for which the GI50 in the experiment on MDA-MB-435 is 3.15 µM; with NCI-H226 lung, over 100 µM; in the experiment with OVCAR-8 ovarian, 24.9 µM; in the experiment with A498 renal, 11.4 µM; in the experiment on EKVX NSCLC, 36.1 µM; with UACC-62 melanoma, 9.51 µM. In addition, the figures for the GI50 in the experiment on SW-620 colon, in the experiment on CAKI-1 renal and in the experiment with DU-145 prostate were 15 µM, 44.1 µM and 20.4 µM, respectively. Moreover, the TGI in the experiment on MDA-MB-435 was 10.9 µM; in the experiment on NCI-H226 lung, over 100 µM; in the experiment with OVCAR-8 ovarian, over 100 µM; in the experiment on A498 renal, 85.3 µM; in the experiment on EKVX NSCLC, over 100 µM; with UACC-62 melanoma, over 100 µM. Moreover, the TGI with SW-620 colon, in the experiment on CAKI-1 renal and with DU-145 prostate was over 100 µM each time.

Regarding `Nc1c(C(=O)N/N=C/c2ccc(-c3cc(Cl)c(Cl)cc3Cl)o2)cnn1-c1ccnc2c(C(F)(F)F)cccc12`, the GI50 with MDA-MB-435 is 3.85 µM; with NCI-H226 lung, 5.62 µM; with A498 renal it was 3.89 µM; with EKVX NSCLC it was 3.09 µM; in the experiment on MALME-3M melanoma, 2.66 µM; in the experiment on UACC-62 melanoma it was 3.94 µM. Moreover, the GI50 in the experiment with SW-620 colon was 4.05 µM; in the experiment on CAKI-1 renal, 4.21 µM; in the experiment with DU-145 prostate it was 3.56 µM. For the same compound, the TGI in the experiment on MDA-MB-435 is over 100 µM; in the experiment on NCI-H226 lung, over 100 µM; with A498 renal, 37.7 µM; with EKVX NSCLC, 49.1 µM; with MALME-3M melanoma, 10.6 µM; with UACC-62 melanoma, over 100 µM. Also, the TGI in the experiment with SW-620 colon, in the experiment with CAKI-1 renal and with DU-145 prostate was over 100 µM throughout.

`c1ccc(B2OCC(C3OB(c4ccccc4)OC4COB(c5ccccc5)OC43)O2)cc1` (stereo not drawn): the TGI in the experiment with MDA-MB-435, with OVCAR-8 ovarian, in the experiment on A498 renal, in the experiment on EKVX NSCLC, with MALME-3M melanoma and with UACC-62 melanoma was over 100 µM in each case. The TGI in the experiment on SW-620 colon, in the experiment with CAKI-1 renal and in the experiment on DU-145 prostate was over 100 µM each time.
